Data as given in publication PMC11053489 (Viruses, 2024).
Counter-ions that a name gives are not always drawn. Like-named read-outs stand apart in the source and are kept apart here.

Tests used:
[1] = system: SARS-CoV-2 (hCoV-19/USA-WA1/2020) in Calu-3 cells; assay: microbe, parasite or virus in culture; format: cell-based; conditions: for EC50: read-out: Calu-3 SARS-CoV-2 EC50; for anti-SARS-CoV-2 activity in Calu-3 cells (in words): tested up to 100 μM; for EC90: read-out: Calu-3 SARS-CoV-2 EC90
CCRF-CEM cells = conditions: human
in vitro [2] = conditions: African green monkey
in vitro [3] = conditions: human, Caco-2
in vitro [4] = conditions: human
[5] = human, in vivo
Huh-7 cells = conditions: human
[6] = system: SARS-CoV-2 (hCoV-19/USA-WA1/2020) in Caco-2 cells; assay: microbe, parasite or virus in culture; conditions: Severe acute respiratory syndrome coronavirus 2, Caco-2, 72 h; for EC50: read-out: Caco-2 SARS-CoV-2 EC50; for EC90: read-out: Caco-2 SARS-CoV-2 EC90
[7] = system: SARS-CoV-2 (hCoV-19/USA-WA1/2020) in Caco-2 cells
[8] = system: SARS-CoV-2 (hCoV-19/USA-WA1/2020) in Vero CCL-81 cells; assay: microbe, parasite or virus in culture; format: cell-based; conditions: for EC50: read-out: Vero CCL-81 SARS-CoV-2 EC50; for EC90: read-out: Vero CCL-81 SARS-CoV-2 EC90
in vitro [9] = conditions: human; remark: listed apart in the source
[10] = MTS cytotoxicity assay, CEM cells; conditions: human
[11] = MTS cytotoxicity assay, Huh-7 cells; conditions: human
[12] = MTS cytotoxicity assay, Caco-2 cells; conditions: human
[13] = MTS cytotoxicity assay, Vero CCL-81 cells; conditions: African green monkey
[14] = Peak plasma concentration
[15] = MTS cytotoxicity assay, PBM cells; conditions: human
[16] = MTS cytotoxicity assay, Calu-3 cells; conditions: human
[17] = system: primary human peripheral blood mononuclear cells (PBM); conditions: human
Vero CCL-81 cells = conditions: African green monkey
[18] = cited from earlier work
in vitro [19] = conditions: human; remark: listed apart in the source
in vitro [20] = conditions: human; remark: listed apart in the source
[21] = system: COVID-19 / SARS-CoV-2 infection; conditions: with standard medical care versus placebo plus standard care, 38 ambulatory individuals; cited from earlier work
[22] = Severe acute respiratory syndrome coronavirus 2, Calu-3, MOI 0.01, 72 h, 2% FBS
[23] = Severe acute respiratory syndrome coronavirus 2, Table 1 drugs, MOI 0.1, 48 h, 2% FBS
[24] = Table 1, ref column Refs of Table 1
[25] = Severe acute respiratory syndrome coronavirus 2, Calu-3, 72 h
[26] = Severe acute respiratory syndrome coronavirus 2, 48 h

Row | SMILES | EC50 [1, 22] [µM] | CC50 at 3 days (in vitro [2]) [µM] | CC50 at 3 days (in vitro [3]) [µM] | CC50 at 5 days (in vitro [4]) [µM] | Cmax (μM) {unbound} [5] [µM] | EC50 [6] [µM] | EC90 [6] [µM] | Caco-2 Unbound Cmax/EC50 ([7]; Caco-2) | EC50 [8, 23] [µM] | EC90 [8, 23] [µM] | CC50 at 3 days (in vitro [9]) [µM] | CC50 at 4 days [11] [µM] | CC50 at 3 days [12] [µM] | CC50 at 3 days [13] [µM] | Cmax (μM) {unbound} ([14]; human, in vivo) [µM] | CC50 at 5 days [15] [µM] | CC50 at 3 days [16] [µM] | Fun (unbound fraction of drug in plasma) [18, 24] | also measured
1 | Cc1cccc(/C=N/Nc2cc(N3CCOCC3)nc(OCCc3ccccn3)n2)c1 [Apilimod mesylate] | > 100 | > 100 | > 100 | > 100 | 0.043 | 85 | > 100 | 0.0005 | 0.7 | 7.4 | > 100 | – | – | – | – | – | – | – | anti-SARS-CoV-2 activity in Calu-3 cells (in words) [1]: inactive; CEM CC50 {Unbound} (CCRF-CEM cells; 4 days): 62.2 µM; Huh7 CC50 {Unbound} (Huh-7 cells; 4 days): 54.8 µM
2 | Cc1ccc(-c2cc(C(F)(F)F)nn2-c2ccc(S(N)(=O)=O)cc2)cc1 [Celecoxib] | 3 | – | – | – | – | 0.7 | 1.2 | – | 7.2 | 14.6 | – | 31.1 | 59.1 | 50 | 0.056 | > 100 | 70.5 | – | CC50 at 4 days [10]: 77.1 µM; EC90 [1, 22]: 6.3 µM; Caco-2 Unbound Cmax/EC50 ([7]; Cmax × Fun/EC50): 0.08
3 | COC(=O)N[C@H](C(=O)N1CCC[C@H]1c1nc(-c2ccc(-c3ccc(-c4c[nH]c([C@@H]5CCCN5C(=O)[C@@H](NC(=O)OC)C(C)C)n4)cc3)cc2)c[nH]1)C(C)C [Daclatasvir] | > 100 | – | – | – | – | 44.7 | 89.4 | 0.0005 | 0.7 | 3.5 | – | – | – | – | – | – | – | 0.01 | CEM CC50 {Unbound} (CCRF-CEM cells): 26.2 {23.6} μM; CC50 (in vitro [2]): 50.6 µM; CC50 (in vitro [3]): 67.6 µM; PBM CC50 {Unbound} [17]: 36.4 {29.2} μM; Vero CC50 {Unbound} (Vero CCL-81 cells): 50.6 {45.6} μM; Huh7 CC50 {Unbound} (Huh-7 cells): 53.6 {48.3} μM; Cmax (μM) {unbound} ([14]; Table 1, Cmax × Fun): 0.02 µM
4 | O=c1c2ccccc2[se]n1-c1ccccc1 [Ebselen] | – | 22.4 | > 100 | 93.2 | 0.013 | > 100 | – | – | – | – | > 100 | – | – | – | – | – | – | – | EC50 [1, 25]: 6.5 µM; EC90 [1, 25]: > 10 µM; CEM CC50 {Unbound} (CCRF-CEM cells; 4 days): 42.3 µM; PBM CC50 {Unbound} ([17]; 5 days): 75.5 µM; Vero CC50 {Unbound} (Vero CCL-81 cells; 3 days): 20.3 µM; Fun (unbound fraction of drug in plasma) ([18]; plasma): 0.05; Huh7 CC50 {Unbound} (Huh-7 cells; 4 days): 76.3 µM; EC50 [8, 26]: 1.1 µM; EC90 [8, 26]: 2.7 µM
5 | NC(=O)c1nc(F)c[nH]c1=O [Favipiravir] | > 300 | > 100 | > 300 | > 100 | 193 | 256 | > 300 | 0.74 | 90.6 | 234 | > 300 | – | – | – | – | – | – | – | CC50 at 4 days (in vitro [19]): > 100 µM; CC50 at 4 days (in vitro [20]): > 100 µM
6 | CC(C)OC(=O)C(C)(C)Oc1ccc(C(=O)c2ccc(Cl)cc2)cc1 [Fenofibrate] | – | – | – | – | – | – | – | – | – | – | – | > 100 | > 100 | > 100 | 0.28 | 38.9 | ≥ 100 | – | CC50 at 4 days ([10]; CEM CC50, 4 days): 28.5 µM; anti-SARS-CoV-2 activity in Calu-3 cells (in words) [1]: inactive; anti-SARS-CoV-2 activity in Caco-2 cells (in words) ([7]; tested up to 100 μM): inactive
7 | COCCCC/C(=N\OCCN)c1ccc(C(F)(F)F)cc1 [Fluvoxamine (maleate)] | > 100 | – | – | – | – | 17.9 | 47.5 | – | > 100 | – | – | 36.7 | > 100 | 35.5 | 0.003 | 35.4 | > 100 | 0.23 | CC50 at 4 days ([10]; CEM CC50, 4 days): 20 µM; Caco-2 Unbound Cmax/EC50 ([7]; Cmax × Fun/EC50): 0.0017; anti-SARS-CoV-2 activity (in words), concentrations up to 100 μM ([8]; Vero CCL-81 cells, up to 100 μM): inactive
8 | Cc1cccc(Nc2ccccc2C(=O)O)c1C [Mefenamic acid] | > 100 | – | – | – | – | > 100 | – | – | 87.6 | > 100 | – | > 100 | > 100 | > 100 | 1.58 | > 100 | > 100 | 0.1 | CC50 at 4 days [10]: > 100 µM; higher probability of achieving patient-acceptable symptoms on day 8 [21]: about 16 fold
9 | CC(C)(C)[C@H](NC(=O)C(F)(F)F)C(=O)N1C[C@H]2[C@@H]([C@H]1C(=O)N[C@H](C#N)C[C@@H]1CCNC1=O)C2(C)C [Nirmatrelvir] | – | – | – | – | – | 0.1 | 0.3 | 6.8 | – | – | – | – | – | – | – | – | – | 0.31 | CC50 (in vitro [19]): > 100 µM; EC50 [1, 25]: 1.8 µM; EC90 [1, 25]: 8.8 µM; CC50 (in vitro [2]): > 100 µM; CC50 (in vitro [3]): > 100 µM; CC50 (in vitro [4]): > 100 µM; CC50 (in vitro [20]; CEM CC50, 4 days): > 100 µM; Cmax (μM) {unbound} ([14]; Table 1, Cmax × Fun): 2.13 µM; EC50 [8, 26]: 3.7 µM; EC90 [8, 26]: 5.6 µM; CC50 (in vitro [9]): > 100 µM
10 | CC(=O)Oc1ccccc1C(=O)Nc1ncc([N+](=O)[O-])s1 [Nitazoxanide] | 22.8 | 8.7 | 7.2 | 8.3 | 0.014 | 4.4 | 11.1 | 0.078 | 1.4 | 3.9 | 49.8 | – | – | – | – | – | – | 0.01 | EC90 [1, 22]: 42.9 µM
11 | CC(c1cc2ccccc2s1)N(O)C(N)=O (stereo not drawn) [Zileuton] | > 100 | > 100 | > 100 | > 100 | 0.16 | > 100 | – | 0.003 | 6.7 | 35.8 | 46.7 | – | – | – | – | – | – | 0.07 | CC50 at 4 days (in vitro [19]): > 100 µM; CC50 at 4 days (in vitro [20]): > 100 µM
